Data from patent US20100021524A1 (OsteoGeneX Inc., priority 2008, published 2010).
Structures can show the parent of a compound that is named as a salt.

Assays:
mouse = test: Mouse bone formation assay for SOST antagonist candidates, examined by micro-CT; format: in vivo; details: complete dosing schedule, versus control solution
From the text: Compounds useful in the methods of the present invention can be identified via a variety of methods known to one of skill in the art. Several exemplary methods for identifying such antagonists are described herein, including cell-based and in vitro techniques (Journal of Bone and Mineral Research 2006, 21(11), 1738-1749). A general method of identifying SOST antagonists involves evaluating the effects of antagonist candidates on bone formation under controlled conditions. Preferably bone formation is determined using micro-CT techniques on live animals. Preferred animals include rodents, more preferred are primates. Femur, tibia and vertebrae bones are particularly useful subjects for such study.
Briefly, the test animal is treated with a predetermined dose of a SOST antagonist candidate. […]
Once the dosing schedule has been completed, both test and control animals are examined to determine the quantity of bone formation present. […] Where necessary, levels of bone formation can be calculated by determining the volume of bone formation present in each animal. […]
For example, the mouse test animal is treated with a predetermined dose of a SOST antagonist candidate for a complete dosing schedule. […] Once the dosing schedule has been completed, both test and control animals are examined with sacrifice using micro-CT to determine the quantity of bone formation present.

Wnt pathway = test: Modulation of the Wnt pathway to promote bone growth (FIG. 1); details: doses of 2.5 ng (low), 125 ng (high) and 1250 ng (very high)
Experimental: For example, the mouse test animal is treated with a predetermined dose of a SOST antagonist candidate for a complete dosing schedule. A control mouse is treated with a control solution, preferably a non-irritating buffer solution or other carrier. Once the dosing schedule has been completed, both test and control animals are examined with sacrifice using micro-CT to determine the quantity of bone formation present.

C57BL/6 mice = test: Bone growth with pimethixene: 30-day daily i.p. treatment, serum osteocalcin (EIA Elisa) and trabecular bone volume (micro-CT); format: in vivo, mouse; details: four month old male C57BL/6 mice, daily i.p. for 30 days, FIG. 2
Experimental: Four month old male C57BL/6 mice were treated daily with saline vehicle or the sclerostin inhibitor of pimethixene at several doses (via i.p) for 30 days. Study endpoints included a biochemical marker of bone formation; osteocalcin, measured by EIA Elisa, and measurement of trabecular bone volume by mico-CT analysis on the proximal tibia and spine (lumbar 5).

Structure (SMILES) | bone growth (quantity of bone formation present, micro-CT) (mouse) | modulating the Wnt pathway to promote bone growth (Wnt pathway) | increase in bone volume for lumbar 5 over baseline controls, μ-CT analysis (C57BL/6 mice; dosed at 0.01 mg/kg, 0.1 mg/kg or 10 mg/kg) | percent increase in serum osteocalcin bone formation marker over saline controls (C57BL/6 mice; dosed between 10 mg/kg and 0.1 mg/kg) [%]
CN1CCC(=C2c3ccccc3Sc3ccccc32)CC1 [pimethixene] | promoting bone growth |  |  | 
CN1CCC(=C2c3ccccc3Sc3ccccc32)CC1 [pimethixene maleate] |  | modulating the Wnt pathway to promote bone growth | greater than 30% | 25
